# Tests used:
# Format in all cases: biochemical
# BIexoHep = target: T1, BIexoHep (Bacteroides intestinalis, UniProt B3C5J6); assay: tetrasaccharide digestion, 2-AB labelling, anion-exchange HPLC; conditions: exolytic beta-elimination; 5 pmol substrate
# T1 construct: gene BACINT_00178; pET-30a(+), His-purified from E. coli BL21(DE3); crystal residues 24-864, monomer, two Ca2+
# T1 sequence (B3C5J6 24-868): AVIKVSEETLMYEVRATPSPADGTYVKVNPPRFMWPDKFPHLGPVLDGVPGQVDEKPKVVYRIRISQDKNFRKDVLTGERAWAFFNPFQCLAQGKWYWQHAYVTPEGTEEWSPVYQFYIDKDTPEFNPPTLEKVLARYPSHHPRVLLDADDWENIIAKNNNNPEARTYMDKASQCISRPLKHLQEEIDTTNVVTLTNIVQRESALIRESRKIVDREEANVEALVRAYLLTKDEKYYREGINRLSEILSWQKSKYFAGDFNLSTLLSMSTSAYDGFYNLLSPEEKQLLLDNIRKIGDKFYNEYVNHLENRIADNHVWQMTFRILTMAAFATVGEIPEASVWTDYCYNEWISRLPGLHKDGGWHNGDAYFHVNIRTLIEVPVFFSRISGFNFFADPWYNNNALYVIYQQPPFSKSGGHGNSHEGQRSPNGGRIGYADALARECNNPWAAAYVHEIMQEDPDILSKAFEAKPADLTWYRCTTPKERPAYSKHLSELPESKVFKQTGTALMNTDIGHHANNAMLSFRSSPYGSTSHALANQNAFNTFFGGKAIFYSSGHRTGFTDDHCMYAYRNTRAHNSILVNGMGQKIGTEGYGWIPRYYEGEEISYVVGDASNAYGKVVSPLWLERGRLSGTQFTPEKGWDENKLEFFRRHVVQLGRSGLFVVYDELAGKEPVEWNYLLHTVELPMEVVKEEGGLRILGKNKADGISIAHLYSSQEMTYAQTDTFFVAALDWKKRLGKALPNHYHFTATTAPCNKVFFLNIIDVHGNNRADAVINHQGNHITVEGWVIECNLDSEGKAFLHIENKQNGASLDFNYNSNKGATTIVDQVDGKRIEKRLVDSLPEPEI
# BFexoHep = target: T2, BFexoHep (Bacteroides finegoldii, UniProt C9L025); assay: digestion, anion-exchange HPLC at […] nm; conditions: […] μg fondaparinux; cleaved to ΔUA2S([…]-4)GlcNS6S(OCH3) only
# T2 construct: synthetic gene, expressed in E. coli BL21(DE3) and purified as BIexoHep
# T2 sequence (C9L025 24-874): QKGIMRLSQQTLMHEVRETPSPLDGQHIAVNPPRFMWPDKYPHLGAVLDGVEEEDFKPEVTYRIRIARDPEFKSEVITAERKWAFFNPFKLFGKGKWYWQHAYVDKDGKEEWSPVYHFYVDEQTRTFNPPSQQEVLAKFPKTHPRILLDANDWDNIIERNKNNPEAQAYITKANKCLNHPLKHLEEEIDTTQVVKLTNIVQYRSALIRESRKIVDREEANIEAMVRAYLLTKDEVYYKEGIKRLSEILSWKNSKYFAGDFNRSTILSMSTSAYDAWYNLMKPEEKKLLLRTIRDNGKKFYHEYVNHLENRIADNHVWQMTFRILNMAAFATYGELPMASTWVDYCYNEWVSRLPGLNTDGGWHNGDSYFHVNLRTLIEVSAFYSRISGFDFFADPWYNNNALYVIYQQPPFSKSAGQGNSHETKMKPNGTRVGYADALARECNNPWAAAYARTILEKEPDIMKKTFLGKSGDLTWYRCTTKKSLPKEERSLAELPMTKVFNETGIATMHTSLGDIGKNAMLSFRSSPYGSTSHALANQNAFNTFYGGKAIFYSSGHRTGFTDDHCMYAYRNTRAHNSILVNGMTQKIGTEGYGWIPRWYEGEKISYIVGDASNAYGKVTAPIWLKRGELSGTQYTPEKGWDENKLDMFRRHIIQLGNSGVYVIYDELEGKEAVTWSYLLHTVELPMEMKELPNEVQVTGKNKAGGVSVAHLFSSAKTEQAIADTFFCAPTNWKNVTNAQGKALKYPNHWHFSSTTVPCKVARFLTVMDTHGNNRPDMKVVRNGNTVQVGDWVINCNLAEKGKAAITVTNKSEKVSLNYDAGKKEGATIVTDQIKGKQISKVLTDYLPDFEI
# BCexoHep = target: T3, BCexoHep (Bacteroides cellulosilyticus, UniProt A0A0P0GDH6); assay: digestion, anion-exchange HPLC at […] nm; conditions: 5 μg fondaparinux; cleaved to ΔUA2S(1-4)GlcNS6S(OCH3) only
# T3 construct: gene hepB; synthetic gene, expressed in E. coli BL21(DE3) and purified as BIexoHep
# T3 sequence (A0A0P0GDH6 18-868): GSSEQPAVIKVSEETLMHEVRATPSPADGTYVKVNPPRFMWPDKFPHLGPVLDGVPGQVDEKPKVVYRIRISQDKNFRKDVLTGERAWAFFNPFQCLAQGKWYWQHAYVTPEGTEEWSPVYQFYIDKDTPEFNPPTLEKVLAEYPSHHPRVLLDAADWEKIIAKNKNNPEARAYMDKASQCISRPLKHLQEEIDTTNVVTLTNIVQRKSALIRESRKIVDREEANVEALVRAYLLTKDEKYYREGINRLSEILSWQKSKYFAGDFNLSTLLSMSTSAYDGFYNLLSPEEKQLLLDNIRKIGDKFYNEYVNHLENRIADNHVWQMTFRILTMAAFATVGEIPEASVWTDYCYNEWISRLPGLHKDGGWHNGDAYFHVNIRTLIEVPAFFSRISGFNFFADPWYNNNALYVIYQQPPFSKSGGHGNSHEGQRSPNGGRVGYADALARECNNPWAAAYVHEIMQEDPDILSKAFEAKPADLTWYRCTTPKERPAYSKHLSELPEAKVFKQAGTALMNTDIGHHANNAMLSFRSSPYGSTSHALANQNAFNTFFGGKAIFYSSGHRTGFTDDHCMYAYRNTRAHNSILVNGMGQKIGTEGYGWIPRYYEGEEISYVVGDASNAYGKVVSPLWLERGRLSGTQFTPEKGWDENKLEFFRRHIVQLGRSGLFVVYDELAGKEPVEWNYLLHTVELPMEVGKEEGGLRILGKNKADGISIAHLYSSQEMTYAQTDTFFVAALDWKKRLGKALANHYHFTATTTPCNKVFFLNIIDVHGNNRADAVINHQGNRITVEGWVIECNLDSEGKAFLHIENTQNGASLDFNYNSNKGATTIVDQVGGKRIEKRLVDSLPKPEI
# BTexoHep = target: T4, BTexoHep (Bacteroides thetaiotaomicron, UniProt Q89YS9); assay: digestion, anion-exchange HPLC at […] nm; conditions: 5 μg fondaparinux; cleaved to ΔUA2S(1-4)GlcNS6S(OCH3) only
# T4 construct: gene BT_4652; synthetic gene, expressed in E. coli BL21(DE3) and purified as BIexoHep
# T4 sequence (Q89YS9 22-872): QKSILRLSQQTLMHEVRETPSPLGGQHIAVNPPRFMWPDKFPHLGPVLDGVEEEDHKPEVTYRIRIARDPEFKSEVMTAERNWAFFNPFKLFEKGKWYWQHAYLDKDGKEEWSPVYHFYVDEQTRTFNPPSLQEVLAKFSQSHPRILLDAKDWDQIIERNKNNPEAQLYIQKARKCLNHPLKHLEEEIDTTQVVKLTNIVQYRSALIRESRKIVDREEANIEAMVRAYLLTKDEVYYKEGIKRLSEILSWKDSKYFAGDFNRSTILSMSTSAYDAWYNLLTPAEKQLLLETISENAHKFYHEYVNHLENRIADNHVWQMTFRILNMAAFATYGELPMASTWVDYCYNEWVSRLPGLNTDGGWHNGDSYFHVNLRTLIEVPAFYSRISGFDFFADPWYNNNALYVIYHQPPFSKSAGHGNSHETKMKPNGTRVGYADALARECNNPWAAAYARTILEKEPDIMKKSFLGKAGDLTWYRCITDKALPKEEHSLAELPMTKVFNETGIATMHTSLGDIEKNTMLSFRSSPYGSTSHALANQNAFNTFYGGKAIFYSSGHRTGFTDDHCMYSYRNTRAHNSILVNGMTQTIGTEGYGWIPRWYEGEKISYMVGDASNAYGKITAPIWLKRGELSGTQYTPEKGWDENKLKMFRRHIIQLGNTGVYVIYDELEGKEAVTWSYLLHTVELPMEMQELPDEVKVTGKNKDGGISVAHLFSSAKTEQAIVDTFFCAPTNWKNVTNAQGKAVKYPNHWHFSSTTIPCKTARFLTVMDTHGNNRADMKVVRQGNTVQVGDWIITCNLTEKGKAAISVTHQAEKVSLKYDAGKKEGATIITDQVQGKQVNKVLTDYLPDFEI
smiles,measurement,setting,value
"O=C(O)C1=C[C@H](O)[C@@H](OS(=O)(=O)O)[C@H](O[C@H]2[C@H](O)[C@@H](NS(=O)(=O)O)[C@@H](O[C@H]3[C@H](O)[C@@H](O)[C@H](O[C@H]4[C@H](O)[C@@H](NS(=O)(=O)O)C(O)O[C@@H]4COS(=O)(=O)O)O[C@@H]3C(=O)O)O[C@@H]2COS(=O)(=O)O)O1 (some centres unmarked) [P4-7, ΔUA2S1-4GlcNS6S1-4GlcA1-4GlcNS6S]","tetrasaccharide digestion, 2-AB labelling, anion-exchange HPLC",BIexoHep,all could be almost completely degraded
"O=C(O)C1=C[C@H](O)[C@@H](OS(=O)(=O)O)[C@H](O[C@H]2[C@H](O)[C@@H](NS(=O)(=O)O)[C@@H](O[C@H]3[C@H](O)[C@@H](OS(=O)(=O)O)[C@H](O[C@H]4[C@H](O)[C@@H](NS(=O)(=O)O)C(O)O[C@@H]4COS(=O)(=O)O)O[C@H]3C(=O)O)O[C@@H]2COS(=O)(=O)O)O1 (some centres unmarked) [P4-8, ΔUA2S1-4GlcNS6S1-4IdoA2S1-4GlcNS6S]","tetrasaccharide digestion, 2-AB labelling, anion-exchange HPLC",BIexoHep,this enzyme prefers to digest highly sulfated substrates
CO[C@H]1O[C@H](COS(=O)(=O)O)[C@@H](O[C@@H]2O[C@@H](C(=O)O)[C@@H](O[C@H]3O[C@H](COS(=O)(=O)O)[C@@H](O[C@@H]4O[C@H](C(=O)O)[C@@H](O[C@H]5O[C@H](COS(=O)(=O)O)[C@@H](O)[C@H](O)[C@H]5NS(=O)(=O)O)[C@H](O)[C@H]4O)[C@H](OS(=O)(=O)O)[C@H]3NS(=O)(=O)O)[C@H](O)[C@H]2OS(=O)(=O)O)[C@H](O)[C@H]1NS(=O)(=O)O [fondaparinux],"digestion, anion-exchange HPLC at 232 nm",BFexoHep,all these exoHepases can degrade the fondaparinux
same,"digestion, anion-exchange HPLC at 232 nm",BCexoHep,all these exoHepases can degrade the fondaparinux
same,"digestion, anion-exchange HPLC at 232 nm",BTexoHep,all these exoHepases can degrade the fondaparinux
